# Assay results as given in patent US20220220533A1, “METHOD OF DIAGNOSING AND MONITORING SUBSTANCE ADDICTION OR BEHAVIORAL ADDICTION USING C-KIT BIOMARKER” (Wuhan University, priority 2019, published 2022).
# Counter-ions that a name gives are not always drawn.
# What was measured:
# c-Kit [1] = target: T1, c-Kit (Rattus norvegicus, UniProt F7EWK5); assay type: in vivo; conditions: rats, imatinib mesylate 30 mg/kg i.p. 30 min before morphine or saline
# T1 construct: from tissue; host or cells: rat brain (nucleus accumbens, prefrontal cortex, hippocampus and other regions)
# Method: (§1) After 1 h, anesthesia and perfusion were performed, a brain tissue was fixed with a 4% paraformaldehyde solution, dehydrated in alcohol solutions with different concentrations, hyalinized in xylene, embedded in paraffin, and then cut into 3 μm-thick sections. Tissues were deparaffinized, boiled in 0.01M sodium citrate buffer (pH 6.0) for 10-15 min, and cooled in cold water to room temperature.
# morphine CPP [2] = experiment: Formation of morphine conditioned place preference (CPP) in mice; assay type: in vivo; conditions: imatinib mesylate 45 mg/kg i.p. 30 min before morphine 15 mg/kg s.c., test day 10
# [3] = system: high-sugar and high-fat food CPP; experiment: Formation of conditioned place preference on high-sugar and high-fat food in rats; assay type: in vivo, rat; conditions: imatinib mesylate 1, 5, 10, 20 and 30 mg/kg i.p.
# [4] = system: high-sugar and high-fat food CPP; experiment: High-sugar and high-fat food CPP after environmental or unconditioned re-exposure, nucleus accumbens microinjection; assay type: in vivo, rat; conditions: rats
# c-Kit [5] = target: T1, c-Kit; assay type: in vivo; conditions: gambling rats, imatinib mesylate 30 mg/kg
# gambling behavior [6] = experiment: Rat gambling behavior model (rGT), Example 9; assay type: in vivo; conditions: rats, imatinib mesylate 30 mg/kg
# Method: A gambling behavior model of rats was established: animals were first accustomed to the operating chambers twice a day for 30 min each time, during which sucrose granules were placed on the reaction wells and the food banks. Animals were then trained to poke their noses into one of the luminescent reaction wells within 10 s to obtain a reward. Space positions of the stimulus light were varied in different experiments of wells 1, 2, 4 and 5. Each session consisted of 100 trials lasting approximately 30 min. After 5 trials, animals continued to complete 100 trials. Animals were then trained 7 times for forced-choice rGT (or an rGT variant of the control group), followed by a completely free-choice task, ensuring that all animals had the same experience in the four reinforcement conditions and were designed to prevent simple prejudice against specific wells. The percentage of animals selected for a particular option trial was calculated according to the formula […].
# gambling behavior [7] = experiment: Dose effect on gambling behavior in rats under gambling task (rGT) conditions; assay type: in vivo, rat
# Method: A gambling behavior model of rats was established: firstly, the animals were acclimated to the operating chamber twice a day for 30 min each time, during which sucrose granules were placed on the reaction wells and the food bank. After acclimation, animals were trained to poke their noses into one of the luminescent reaction wells within 10 s to obtain a reward. Spatial positions of the stimulus light would appear in different wells of wells 1, 2, 4 and 5 in different experiments. Each session consisted of 100 trials lasting approximately 30 min. Animals were then trained 7 times for forced-choice rGT (or an rGT variant of the control group), and then underwent a completely free-choice task. This ensured that all animals had the same experience under the four reinforcement conditions and were designed to prevent simple prejudice against specific wells. The percentage of trials in which animals chose a particular option was calculated according to the formula in reference: Choices of a particular option/Total choices of 100 (Di C P, Manvich D F, Pushparaj A, et al. Effects of disulfiram on choice behavior in a rodent gambling task: association with catecholamine levels[J]. Psychopharmacology, 2018, 235(1):23-35). Each experiment lasted 30 min and experimental subjects responded with a nose poke on the illuminated food bank, which turned off the tray light and triggered the initiation of a 5-s intertrial interval (ITT). At the end of the ITI, wells 1, 2, 4 and 5 were illuminated for 10 s (in the forced-choice version of the task used in the training, only one well was illuminated).
# Explanation to the above table: four wells in the experimental apparatus were respectively provided with different reward probability and penalty probability, as well as corresponding reward sucrose amount and penalty time.
# After training, the rats were given with drugs. […] The rats in the direct administration group were directly given with imatinib (1, 5, 10, 20 and 30 mg/kg, ip) or saline (1 mL/kg, ip) without being placed in the experimental device. […]
# morphine CPP [8] = conditions: mice
# [9] = system: high-sugar and high-fat food CPP; experiment: High-sugar and high-fat food CPP after environmental or unconditioned re-exposure, intraperitoneal administration; conditions: rats
# c-Kit [10] = assay type: in vivo, rat; conditions: rats, 1 h after acute morphine 10 mg/kg s.c., compared with normal rats
# Method: as §1
# c-Kit [11] = assay type: in vivo, rat
# Method: Under the guidance of NIR-II fluorescence imaging, dynamic changes of the brain regions of the rats were dynamically monitored and photographed at 2 h, 6 h, 8 h and 12 h with a near-infrared II region imaging camera, respectively, so as to indicate changes in a phosphorylation level of c-Kit protein.
# [12] = rats exposed to the environment, 10, 20 and 30 mg/kg ip, compared to control group
# T1 sequence (F7EWK5 26-978): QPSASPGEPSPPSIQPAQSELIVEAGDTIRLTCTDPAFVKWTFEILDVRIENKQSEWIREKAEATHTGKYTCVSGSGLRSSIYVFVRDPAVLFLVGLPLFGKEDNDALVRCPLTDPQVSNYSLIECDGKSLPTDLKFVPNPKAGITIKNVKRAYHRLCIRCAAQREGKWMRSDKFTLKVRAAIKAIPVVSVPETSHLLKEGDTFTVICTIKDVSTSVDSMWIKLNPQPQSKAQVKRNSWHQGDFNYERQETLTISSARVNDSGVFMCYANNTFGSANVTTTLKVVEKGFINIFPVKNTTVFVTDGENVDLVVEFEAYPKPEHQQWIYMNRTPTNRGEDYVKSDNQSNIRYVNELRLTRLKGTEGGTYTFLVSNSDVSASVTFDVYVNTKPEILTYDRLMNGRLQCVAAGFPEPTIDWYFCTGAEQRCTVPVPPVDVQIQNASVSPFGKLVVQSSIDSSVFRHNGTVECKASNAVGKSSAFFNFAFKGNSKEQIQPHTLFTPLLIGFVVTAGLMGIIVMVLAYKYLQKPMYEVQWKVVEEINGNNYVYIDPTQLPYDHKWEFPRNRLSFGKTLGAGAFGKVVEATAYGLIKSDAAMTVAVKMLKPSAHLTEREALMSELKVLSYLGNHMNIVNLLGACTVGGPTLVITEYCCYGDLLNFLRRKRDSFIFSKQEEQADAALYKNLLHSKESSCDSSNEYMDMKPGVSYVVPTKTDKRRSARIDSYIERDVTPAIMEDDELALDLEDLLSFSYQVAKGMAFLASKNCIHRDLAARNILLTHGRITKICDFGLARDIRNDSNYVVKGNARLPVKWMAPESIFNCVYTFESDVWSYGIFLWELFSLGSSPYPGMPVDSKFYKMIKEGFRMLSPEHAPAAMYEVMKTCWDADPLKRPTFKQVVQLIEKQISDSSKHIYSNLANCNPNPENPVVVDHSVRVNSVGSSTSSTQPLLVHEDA
Structure (SMILES),"phosphorylation activity of c-Kit protein in nucleus accumbens, prefrontal cortex and hippocampus (c-Kit [1])",formation of conditioned place preference (CPP score) (morphine CPP [2]),formation of conditioned place preference on high-sugar and high-fat food [3],food-seeking behavior caused by the environment and food ([4]; nucleus accumbens microinjection 4 μg/0.5 μL),"ignition of CPP ([4]; nucleus accumbens microinjection, after 2 weeks)",phosphorylation level of c-Kit (c-Kit [5]),gambling behavior (gambling behavior [6]),"effect on gambling choice in rGT (gambling behavior [7]; rats as directly administered, any dose (1-30 mg/kg ip))",choice at P4 in rGT (gambling behavior [7]; [12]),optimal choice at P2 in rGT (gambling behavior [7]; [12]),CPP Score after re-exposure to environmental cues (morphine CPP [8]; imatinib mesylate 45 mg/kg i.p. 30 min before re-exposure),"ignition of morphine CPP (morphine CPP [8]; small dose of morphine 5 mg/kg i.p., after 1 week)","ignition of CPP ([9]; i.p. administration, small amount of high-sugar and high-fat food, after 2 weeks)","food-seeking behaviors induced by environment and food ([9]; imatinib mesylate 1, 5, 10, 20 and 30 mg/kg i.p. after re-exposure)",phosphorylation level of c-Kit protein in nucleus accumbens regions (c-Kit [10]),"phosphorylation level of c-Kit protein in prefrontal cortex, hippocampus and other regions (c-Kit [10])",time at which enrichment intensity of the probes reached a peak (c-Kit [11]; rats after acute morphine administration),"phosphorylation activity of c-Kit in the brains of the rats (brain brightness) (c-Kit [11]; rats, acute morphine 10 mg/kg s.c., contrast with normal saline group)"
Cc1ccc(NC(=O)c2ccc(CN3CCN(C)CC3)cc2)cc1Nc1nccc(-c2cccnc2)n1 [imatinib mesylate],significantly decreased,could not be formed normally,inhibited,inhibited,not ignited,significantly inhibited,significantly eliminated,no significant effect,reduced,significantly increased,significantly reduced,not ignited,not ignited,inhibited,–,–,–,–
CN1CC[C@]23c4c5ccc(O)c4O[C@H]2[C@@H](O)C=C[C@H]3[C@H]1C5 [morphine],–,–,–,–,–,–,–,–,–,–,–,–,–,–,significantly increased,no significant change,6 h,significantly enhance
